{
  "source": "patent US8192962B2",
  "about": "“Processes for detecting toxic substances” (Daikin Industries, Ltd., priority 2001, dated 2012)",
  "test_system": "Detoxification protein genes",
  "experiment": "DNA chip mRNA expression in yeast, detoxification protein genes (Table 8)",
  "assay_type": "cell-based, Saccharomyces cerevisiae S288C",
  "summary_of_the_method": "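Measured as treated-to-untreated fluorescence ratio on a full-genome yeast DNA chip. Cells (S288C, YPD, 25° C.) were exposed in log phase for two hours to one chemical, dosed to curb growth without killing.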",
  "data": [
    {"smiles": "Oc1cc(Cl)c(Cl)cc1Cl", "note": "[(6), 2,4,5-trichlorophenol]", "values": [
      {"measurement": "The level of expressed mRNA in the presence of chemical substance/The level of expressed mRNA in the absence of chemical substance", "setting": "yeast gene YBL064C", "result": 5.2},
      {"measurement": "The level of expressed mRNA in the presence of chemical substance/The level of expressed mRNA in the absence of chemical substance", "setting": "yeast gene YBR008C", "result": 1.0},
      {"measurement": "The level of expressed mRNA in the presence of chemical substance/The level of expressed mRNA in the absence of chemical substance", "setting": "yeast gene YBR145W", "result": 11.5},
      {"measurement": "The level of expressed mRNA in the presence of chemical substance/The level of expressed mRNA in the absence of chemical substance", "setting": "yeast gene YBR244W", "result": 1.0},
      {"measurement": "The level of expressed mRNA in the presence of chemical substance/The level of expressed mRNA in the absence of chemical substance", "setting": "yeast gene YBR293W", "result": 0.9},
      {"measurement": "The level of expressed mRNA in the presence of chemical substance/The level of expressed mRNA in the absence of chemical substance", "setting": "yeast gene YCL035C", "result": 5.1},
      {"measurement": "The level of expressed mRNA in the presence of chemical substance/The level of expressed mRNA in the absence of chemical substance", "setting": "yeast gene YCR083W", "result": 2.4},
      {"measurement": "The level of expressed mRNA in the presence of chemical substance/The level of expressed mRNA in the absence of chemical substance", "setting": "yeast gene YDL100C", "result": 2.1},
      {"measurement": "The level of expressed mRNA in the presence of chemical substance/The level of expressed mRNA in the absence of chemical substance", "setting": "yeast gene YDL168W", "result": 1.4},
      {"measurement": "The level of expressed mRNA in the presence of chemical substance/The level of expressed mRNA in the absence of chemical substance", "setting": "yeast gene YDR256C", "result": 0.5},
      {"measurement": "The level of expressed mRNA in the presence of chemical substance/The level of expressed mRNA in the absence of chemical substance", "setting": "yeast gene YDR453C", "result": 1.7},
      {"measurement": "The level of expressed mRNA in the presence of chemical substance/The level of expressed mRNA in the absence of chemical substance", "setting": "yeast gene YDR513W", "result": 2.1},
      {"measurement": "The level of expressed mRNA in the presence of chemical substance/The level of expressed mRNA in the absence of chemical substance", "setting": "yeast gene YDR538W", "result": 1.0},
      {"measurement": "The level of expressed mRNA in the presence of chemical substance/The level of expressed mRNA in the absence of chemical substance", "setting": "yeast gene YEL027W", "result": 1.1},
      {"measurement": "The level of expressed mRNA in the presence of chemical substance/The level of expressed mRNA in the absence of chemical substance", "setting": "yeast gene YEL065W", "result": 2.3},
      {"measurement": "The level of expressed mRNA in the presence of chemical substance/The level of expressed mRNA in the absence of chemical substance", "setting": "yeast gene YER185W", "result": 1.2},
      {"measurement": "The level of expressed mRNA in the presence of chemical substance/The level of expressed mRNA in the absence of chemical substance", "setting": "yeast gene YFL050C", "result": 0.9},
      {"measurement": "The level of expressed mRNA in the presence of chemical substance/The level of expressed mRNA in the absence of chemical substance", "setting": "yeast gene YGL013C", "result": 2.3},
      {"measurement": "The level of expressed mRNA in the presence of chemical substance/The level of expressed mRNA in the absence of chemical substance", "setting": "yeast gene YGL254W", "result": 0.7},
      {"measurement": "The level of expressed mRNA in the presence of chemical substance/The level of expressed mRNA in the absence of chemical substance", "setting": "yeast gene YGR088W", "result": 1.3},
      {"measurement": "The level of expressed mRNA in the presence of chemical substance/The level of expressed mRNA in the absence of chemical substance", "setting": "yeast gene YGR138C", "result": 0.8},
      {"measurement": "The level of expressed mRNA in the presence of chemical substance/The level of expressed mRNA in the absence of chemical substance", "setting": "yeast gene YGR197C", "result": 0.5},
      {"measurement": "The level of expressed mRNA in the presence of chemical substance/The level of expressed mRNA in the absence of chemical substance", "setting": "yeast gene YGR209C", "result": 1.9},
      {"measurement": "The level of expressed mRNA in the presence of chemical substance/The level of expressed mRNA in the absence of chemical substance", "setting": "yeast gene YGR224W", "result": 0.8},
      {"measurement": "The level of expressed mRNA in the presence of chemical substance/The level of expressed mRNA in the absence of chemical substance", "setting": "yeast gene YHL040C", "result": 7.3},
      {"measurement": "The level of expressed mRNA in the presence of chemical substance/The level of expressed mRNA in the absence of chemical substance", "setting": "yeast gene YHL047C", "result": 8.4},
      {"measurement": "The level of expressed mRNA in the presence of chemical substance/The level of expressed mRNA in the absence of chemical substance", "setting": "yeast gene YHR008C", "result": 1.0},
      {"measurement": "The level of expressed mRNA in the presence of chemical substance/The level of expressed mRNA in the absence of chemical substance", "setting": "yeast gene YHR048W", "result": 0.8},
      {"measurement": "The level of expressed mRNA in the presence of chemical substance/The level of expressed mRNA in the absence of chemical substance", "setting": "yeast gene YHR053C", "result": 1.3},
      {"measurement": "The level of expressed mRNA in the presence of chemical substance/The level of expressed mRNA in the absence of chemical substance", "setting": "yeast gene YHR055C", "result": 1.6},
      {"measurement": "The level of expressed mRNA in the presence of chemical substance/The level of expressed mRNA in the absence of chemical substance", "setting": "yeast gene YIR002C", "result": 2.2},
      {"measurement": "The level of expressed mRNA in the presence of chemical substance/The level of expressed mRNA in the absence of chemical substance", "setting": "yeast gene YIR038C", "result": 2.5},
      {"measurement": "The level of expressed mRNA in the presence of chemical substance/The level of expressed mRNA in the absence of chemical substance", "setting": "yeast gene YJL101C", "result": 1.0},
      {"measurement": "The level of expressed mRNA in the presence of chemical substance/The level of expressed mRNA in the absence of chemical substance", "setting": "yeast gene YJR104C", "result": 1.4},
      {"measurement": "The level of expressed mRNA in the presence of chemical substance/The level of expressed mRNA in the absence of chemical substance", "setting": "yeast gene YKL026C", "result": 1.8},
      {"measurement": "The level of expressed mRNA in the presence of chemical substance/The level of expressed mRNA in the absence of chemical substance", "setting": "yeast gene YKL064W", "result": 1.5},
      {"measurement": "The level of expressed mRNA in the presence of chemical substance/The level of expressed mRNA in the absence of chemical substance", "setting": "yeast gene YKR066C", "result": 0.9},
      {"measurement": "The level of expressed mRNA in the presence of chemical substance/The level of expressed mRNA in the absence of chemical substance", "setting": "yeast gene YKR105C", "result": 1.2},
      {"measurement": "The level of expressed mRNA in the presence of chemical substance/The level of expressed mRNA in the absence of chemical substance", "setting": "yeast gene YKR106W", "result": 1.6},
      {"measurement": "The level of expressed mRNA in the presence of chemical substance/The level of expressed mRNA in the absence of chemical substance", "setting": "yeast gene YLL028W", "result": 1.7},
      {"measurement": "The level of expressed mRNA in the presence of chemical substance/The level of expressed mRNA in the absence of chemical substance", "setting": "yeast gene YLL057C", "result": 1.0},
      {"measurement": "The level of expressed mRNA in the presence of chemical substance/The level of expressed mRNA in the absence of chemical substance", "setting": "yeast gene YLL060C", "result": 1.4},
      {"measurement": "The level of expressed mRNA in the presence of chemical substance/The level of expressed mRNA in the absence of chemical substance", "setting": "yeast gene YLR043C", "result": 1.4},
      {"measurement": "The level of expressed mRNA in the presence of chemical substance/The level of expressed mRNA in the absence of chemical substance", "setting": "yeast gene YLR046C", "result": 3.8},
      {"measurement": "The level of expressed mRNA in the presence of chemical substance/The level of expressed mRNA in the absence of chemical substance", "setting": "yeast gene YML028W", "result": 1.2},
      {"measurement": "The level of expressed mRNA in the presence of chemical substance/The level of expressed mRNA in the absence of chemical substance", "setting": "yeast gene YML116W", "result": 0.9},
      {"measurement": "The level of expressed mRNA in the presence of chemical substance/The level of expressed mRNA in the absence of chemical substance", "setting": "yeast gene YMR015C", "result": 1.3},
      {"measurement": "The level of expressed mRNA in the presence of chemical substance/The level of expressed mRNA in the absence of chemical substance", "setting": "yeast gene YMR038C", "result": 1.0},
      {"measurement": "The level of expressed mRNA in the presence of chemical substance/The level of expressed mRNA in the absence of chemical substance", "setting": "yeast gene YNL239W", "result": 1.8},
      {"measurement": "The level of expressed mRNA in the presence of chemical substance/The level of expressed mRNA in the absence of chemical substance", "setting": "yeast gene YNL241C", "result": 0.9},
      {"measurement": "The level of expressed mRNA in the presence of chemical substance/The level of expressed mRNA in the absence of chemical substance", "setting": "yeast gene YNL259C", "result": 3.9},
      {"measurement": "The level of expressed mRNA in the presence of chemical substance/The level of expressed mRNA in the absence of chemical substance", "setting": "yeast gene YOL158C", "result": 2.0},
      {"measurement": "The level of expressed mRNA in the presence of chemical substance/The level of expressed mRNA in the absence of chemical substance", "setting": "yeast gene YOR031W", "result": 0.9},
      {"measurement": "The level of expressed mRNA in the presence of chemical substance/The level of expressed mRNA in the absence of chemical substance", "setting": "yeast gene YOR153W", "result": 7.4}
    ]}
  ]
}
